From ChEMBL document CHEMBL1121593, “Synthesis of 2,4-disubstituted 6-methoxy-8-aminoquinoline analogues as potential antiparasitics” (J Med Chem, 1980)

Columns and labels:
Mus musculus [1] = assay: Mean survival time which expresses the antimalarial activity of compound was measured against Plasmodium berghei in mice (Mus musculus) at 80 mg/kg dose; assay type: functional
Mus musculus [2] = assay: (§1) Mean survival time which expresses the antimalarial activity of compound was measured against Plasmodium berghei in mice (Mus musculus) at 640 mg/kg dose; assay type: functional
Mus musculus [3] = assay: (§2) Mean survival time which expresses the antimalarial activity of compound was measured against Plasmodium berghei in mice (Mus musculus) at 320 mg/kg dose; assay type: functional
Mus musculus [4] = assay: Mean survival time which expresses the antimalarial activity of compound was measured against Plasmodium berghei in mice (Mus musculus) at 40 mg/kg dose; assay type: functional
Mus musculus [5] = assay: Mean survival time which expresses the antimalarial activity of compound was measured against Plasmodium berghei in mice (Mus musculus) a 160 mg/kg dose; assay type: functional
Mus musculus [6] = assay: Mean survival time which expresses the antimalarial activity of compound was measured against Plasmodium berghei in mice (Mus musculus) at 20 mg/kg dose; assay type: functional
Mus musculus [7] = assay: (§3) Mean survival time which expresses the antimalarial activity of compound was measured against Plasmodium berghei in mice (Mus musculus) at 160 mg/kg dose; assay type: functional
Cricetinae gen. sp. [8] = assay: (§4) G index is the relative activity to that of glucantime was measured on Leishmania donovani in hamsters.; assay type: functional, hamster
Plasmodium cynomolgi = assay: Radical curative activity in presence of chloroquine against Plasmodium cynomolgi infected Rhesus monkey at 1.3 mg/kg; assay type: functional
Mus musculus [9] = assay: as §3; assay type: ADME, organism-based; design: dose 160 mg/kg; conditions: in vivo
Mus musculus [10] = assay: as §1; assay type: ADME, organism-based; design: dose 640 mg/kg; conditions: in vivo
Cricetinae gen. sp. [11] = assay: as §4; assay type: functional, Cricetulus griseus
Mus musculus [12] = assay: as §2; assay type: ADME, organism-based; design: dose 320 mg/kg; conditions: in vivo
Mus musculus [13] = assay: Mean survival time which expresses the antimalarial activity of compound was measured against Plasmodium berghei in mice (Mus musculus) at […] mg/kg dose; assay type: functional

Compound | Delta MST (Mus musculus [2]) [days] | Delta MST (Mus musculus [4]) [days] | Delta MST (Mus musculus [6]) [days] | Delta MST (Mus musculus [7]) [days] | Relative activity (Cricetinae gen. sp. [8]) | also measured
C=Cc1cc(C)c2cc(OC)cc(NC(C)CCCN)c2n1 (centres undefined) | 6.2 | 0 | 0 | – | – | Delta MST (Mus musculus [1]): 0.6 days; Delta MST (Mus musculus [3]): 2.2 days; Delta MST (Mus musculus [5]): 0.4 days
CCc1cc(C)nc2c(NCCCCCCN(CC)CC)cc(OC)cc12 | 4.9 | 1.3 | – | 2.7 | 29.2 | –
CCc1cc(C)nc2c(NC(C)CCCN)cc(OC)cc12 (centres undefined) | 10.3 | 2.3 | 1.7 | 5.1 | – | Delta MST (Mus musculus [1]): 3.7 days; Delta MST (Mus musculus [3]): 7.7 days
CCc1cc(C)c2cc(OC)cc(NC(C)CCCN)c2n1 (centres undefined) | – | – | – | – | 8.99 | Cured (Plasmodium cynomolgi): 90%
CCN(CC)CCCCCCNc1cc(OC)cc2c(C)cc(CCBr)nc12 | – | 0.3 | – | 0 | – | Deaths (Mus musculus [9]): 5; Deaths (Mus musculus [10]): 5; Relative activity (Cricetinae gen. sp. [11]): 2.6
CCc1cc(C)c2cc(OC)cc(NCCCCCCN(CC)CC)c2n1 | 0.7 | 0.3 | – | 0.3 | 130 | –
COc1cc(NC(C)CCCN)c2ncccc2c1 (centres undefined) [PRIMAQUINE] | – | 5 | 4 | – | 2.1 | Deaths (Mus musculus [12]): 5; Deaths (Mus musculus [9]): 2; Delta MST (Mus musculus [13]): 9.4 days; Deaths (Mus musculus [10]): 5
